For the assay, the system named is ES cells-derived neurons. The experiment in a line: Whole-cell patch-clamp recordings on ES cells-derived neurons. Format: cell-based, mouse. Conditions: cells in culture for 10 and up to 22 days.

Each structure is given as a SMILES string.

As to `NS(=O)(=O)c1cccc2c1c([N+](=O)[O-])cc1nc(O)c(O)nc12` [NBQX], the “block of spontaneous synaptic currents (SSCs)” value is on record as “blocking of synaptic currents”.

The record behind these values is US20080171350A1, “Neural Cell Differentiation Method From Es Cells” (NOVARTIS FORSCHUNGSSTIFTUNG, ZWEIGNIEDERLASSUNG FRIEDRICH …, priority 2004, published 2008).
